Experimental data published in patent publication US20140193454A1, “METHOD FROM PREPARING CERIPORIA LACERATA CULTURE EXTRACT AND PHARMACEUTICAL COMPOSITION FOR PREVENTION OR TREATMENT OF DIABETES AND DIABETIC COMPLICATIONS COMPRISING CERIPORIA LACERATA CULTURE EXTRACT AS ACTIVE INGREDIENT” (priority 2013, published 2014).

Legend:
Type in all cases: in vivo
[1] = system: C57BL/Ksj (BL/Ls) homozygous diabetic (db/db) mice; assay: Changes in food intake, water intake and weight of db/db mice over 6 weeks; conditions: 300 mg/kg, versus other groups
Text: (§1) In order to examine the blood glucose lowering effects of the Ceriporia lacerata culture and exopolysaccharide, C57BL/Ksj (BL/Ls) homozygous diabetic (db/db) mice (SPF) as a typical type 2 diabetes animal model were used in this experiment. db/db mice are animals in which diabetes is caused by a point mutation in the leptin receptor gene Lepr of chromosome 4. In the animals, as the leptin receptor decreases, the signaling ability decreases, and thus the blood glucose level increases. The animals are recognized as an insulin-independent diabetes model and suitable for the evaluation and comparison of experimental results on the basis of raw data. For these reason, these db/db mice were selected in this experiment. The db/db mice used in this study were 6-week-old male mice weighing about 30-40 g, and these mice were produced in Japan SLC Inc. and obtained from Central Laboratory Animal (Korea). The mice were acclimated for about 7 days, and the weight and blood glucose level thereof were measured. 30 healthy animals suitable for experimentation and having no abnormal general conditions were selected. […] During the rearing period of 6 week, a change in the weight was measured once weekly. In order to examine a change in the blood glucose level, the tail vein blood glucose level was measured using ACCU-CHEK Sensor (Germany) once weekly after 12-hr fasting. […]

[2] = system: C57BL/Ksj (BL/Ls) homozygous diabetic (db/db) mice; assay: Organ weight of db/db mice after 6-week oral administration; conditions: 300 mg/kg orally every day, 6 weeks
Procedure: In the animals, as the leptin receptor decreases, the signaling ability decreases, and thus the blood glucose level increases. The animals are recognized as an insulin-independent diabetes model and suitable for the evaluation and comparison of experimental results on the basis of raw data. For these reason, these db/db mice were selected in this experiment. […] The mice were acclimated for about 7 days, and the weight and blood glucose level thereof were measured. 30 healthy animals suitable for experimentation and having no abnormal general conditions were selected. The experimental animals were divided according to a randomized block design into a negative control group, an exopolysaccharide low-dose group (150 mg/kg), an exopolysaccharide high-dose group (300 mg/kg) and a positive control group (metformin-300 mg/kg) such that the blood glucose level and weight are equal between the groups. These mice were reared for 6 weeks. In addition, normal and control groups, each consisting of 6 animals, were kept for 6 weeks under the same conditions. All test substances and positive control substances were orally administered at the same point of time every day, and the normal and negative control groups were orally administered with water (FIG. 11). During the rearing period of 6 week, a change in the weight was measured once weekly. In order to examine a change in the blood glucose level, the tail vein blood glucose level was measured using ACCU-CHEK Sensor (Germany) once weekly after 12-hr fasting. The experimental animals were fed with a commercially available animal solid feed (Samtaco Co. Ltd., Korea) and allowed access to water ad libitum. The animals were reared under the conditions of temperature of 23±3° C. and relative humidity of 50±10% with a 12-hr light/12-hr dark cycle (lighting: a.m. 8 to p.m. 8). For sacrifice of the experimental animals, all the animals were fasted for 12 hours and anesthetized with ether. Blood was taken from the saphenous vein and placed in a tube for serum separation. Then, the blood was centrifuged at 3,000 rpm for 20 minutes to obtain serum which was to be used as a sample for analysis of biochemical markers. Immediately after sacrifice, the liver, abdominal fat and the like were extracted from all the animals, weighed, fast-frozen at -80° C. and stored until use. Portions of the extracted liver and pancreas were fixed in 4% paraformaldehyde solution and subjected to histological analysis.

[3] = system: C57BL/Ksj (BL/Ls) homozygous diabetic (db/db) mice; assay: Weekly tail vein blood glucose level after 12-hr fasting; conditions: after 3 weeks (diabetes control about 400 mg/dL)
Text: as §1

In the case of `CN(C)C(=N)N=C(N)N` [MET, metformin], the feed intake [1] is reported as “significantly lower”, the water intake [1] is reported as “significantly lower” and the “Abdominal fat (W/BW)” value [2] is reported as 2.564 ± 0.33 W/BW. For the same compound, the “Kidney (W/BW)” value [2] was 0.39 ± 0.03 W/BW, the “Kidney fat (W/BW)” value [2] was 0.89 ± 0.13 W/BW and the “Liver (W/BW)” value [2] was 2.60 ± 0.19 W/BW. For the same compound, the “Spleen (W/BW)” value [2] was 0.03 ± 0.02 W/BW and the “blood glucose level after 12-hr fasting” value [3] was “no increase in the blood glucose level”.
